Measurements taken from US12281122B1, “PI3K inhibitors” (Cogent Biosciences, Inc., priority 2023, dated 2025).
pIC50: −log10 of the molar value.

What was measured:
[1] = system: T47D (PI3Kα-H1047R) cell line; assay: HTRF phospho-AKT(S473) cell assay in T47D cells; format: cell-based, human
Summary of the method: (§1)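 T47D: RPMI + 10% FBS + 0.2 units/mL insulin, top 5 μM. SKBR3: McCoy's 5A + 10% FBS, top 10 μM, 70 ng/ml PDGF-BB last 15 min. Both: 12-pt 1:3, 2 h, 37° C, max 0.5% DMSO; HTRF pAKT(S473); IC50.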

[2] = system: SKBR3 (PI3Kα-Wild Type) cell line; assay: HTRF phospho-AKT(S473) cell assay in SKBR3 cells; format: cell-based, human
Summary of the method: as §1

[3] = Homo sapiens; T47D (PI3Kα-H1047R) cells, HTRF phospho-AKT(S473), 2 hours compound incubation
[4] = Homo sapiens, SK-BR-3; SKBR3 (PI3Kα-Wild Type) cells, HTRF phospho-AKT(S473), 2 hours compound incubation, PDGF-BB stimulated
[5] = Homo sapiens; HTRF phospho-AKT(S473), T47D (PI3Kα-H1047R) cells, 2 hours compound incubation
[6] = Homo sapiens, SK-BR-3; HTRF phospho-AKT(S473), SKBR3 (PI3Kα-Wild Type) cells, 2 hours compound incubation, PDGF-BB stimulated

| pIC50 [1, 3] | pIC50 [2, 4] | pIC50 [1, 5] | pIC50 [2, 6] | Compound |
| --- | --- | --- | --- | --- |
| 6.30 to 6.60 | 5.30 to 6.00 |  |  | Cc1cc([C@@H](C)Nc2ccc(Cl)nc2C(=O)NS(C)(=O)=O)c2nc(N(C)CC3(C(F)(F)F)CC3)n(C)c(=O)c2c1 [Compound 163, (R)-6-chloro-3-((1-(3,6-dimethyl-2-(methyl((1-(trifluoromethyl)cyclopropyl)methyl)amino)-4-oxo-3,4-dihydroquinazolin-8-yl)ethyl)amino)-N-(methylsulfonyl) picolinamide] |
| 6.30 to 6.60 | ≤ 5.30 |  |  | Cc1cc([C@@H](C)Nc2ccc(Cl)nc2C(=O)NS(C)(=O)=O)c2nc(N3Cc4cn(-c5ccccc5C)nc4C3)n(C)c(=O)c2c1 [Compound 189, (R)-6-chloro-3-((1-(3,6-dimethyl-4-oxo-2-(2-(o-tolyl)-2,6-dihydropyrrolo[3,4-c]pyrazol-5(4H)-yl)-3,4-dihydroquinazolin-8-yl)ethyl)amino)-N-(methylsulfonyl) picolinamide] |
|  |  | 6.30 to 6.60 | ≤ 5.30 | Cc1cc([C@@H](C)Nc2ccc(Cl)nc2C(=O)NS(C)(=O)=O)c2nc(N3C[C@@H]4[C@H](C3)[C@H]4c3nnc(C)n3C(F)F)n(C)c(=O)c2c1 [Compound 644, 6-chloro-3-(((R)-1-(2-((1R,5S,6R)-6-(4-(difluoromethyl)-5-methyl-4H-1,2,4-triazol-3-yl)-3-azabicyclo[3.1.0]hexan-3-yl)-3,6-dimethyl-4-oxo-3,4-dihydroquinazolin-8-yl)ethyl)amino)-N-(methylsulfonyl) picolinamide] |
|  |  | 6.30 to 6.60 | ≤ 5.30 | Cc1cc([C@@H](C)Nc2ccc(Cl)nc2C(=O)NS(C)(=O)=O)c2nc(N3CC[C@@H](c4ccccc4)C3)n(C)c(=O)c2c1 [Compound 687, 6-chloro-3-(((R)-1-(3,6-dimethyl-4-oxo-2-((S)-3-phenylpyrrolidin-1-yl)-3,4-dihydroquinazolin-8-yl)ethyl)amino)-N-(methylsulfonyl) picolinamide] |
|  |  | 6.30 to 6.60 | ≤ 5.30 | Cc1cc([C@@H](C)Nc2ccc(Cl)nc2C(=O)NS(C)(=O)=O)c2nc(N3C[C@@H]4C[C@H]3CN4c3cnc(C)cn3)n(C)c(=O)c2c1 [Compound 591, 6-chloro-3-(((R)-1-(3,6-dimethyl-2-((1S,4S)-5-(5-methylpyrazin-2-yl)-2,5diazabicyclo [2.2.1]heptan-2-yl)-4-oxo-3,4-dihydroquinazolin-8-yl)ethyl)amino)-N-(methylsulfonyl) picolinamide] |
|  |  | 6.30 to 6.60 | 5.30 to 6.00 | Cc1cc([C@@H](C)Nc2ccc(Cl)nc2C(=O)NS(C)(=O)=O)c2nc(N3CCn4ncc(F)c4C3)n(C)c(=O)c2c1 [Compound 711, (R)-6-chloro-3-((1-(2-(3-fluoro-6,7-dihydropyrazolo[1,5-a]pyrazin-5(4H)-yl)-3,6-dimethyl-4-oxo-3,4-dihydroquinazolin-8-yl)ethyl)amino)-N-(methylsulfonyl) picolinamide] |
|  |  | > 6.60 | 5.30 to 6.00 | COc1cc(N2CCN(c3nc4c([C@@H](C)Nc5ccc(Cl)nc5C(=O)NS(C)(=O)=O)cc(C)cc4c(=O)n3C)CC2)ccn1 [Compound 554, (R)-6-chloro-3-((1-(2-(4-(2-methoxypyridin-4-yl)piperazin-1-yl)-3,6-dimethyl-4-oxo-3,4-dihydroquinazolin-8-yl)ethyl)amino)-N-(methylsulfonyl) picolinamide] |
|  |  | 6.30 to 6.60 | ≤ 5.30 | Cc1cc([C@@H](C)Nc2ccc(Cl)nc2C(=O)NS(C)(=O)=O)c2nc(N3CCC(n4nc(C)cc4F)CC3)n(C)c(=O)c2c1 [Compound 490, (R)-6-chloro-3-((1-(2-(4-(5-fluoro-3-methyl-1H-pyrazol-1-yl)piperidin-1-yl)-3,6-dimethyl-4-oxo-3,4-dihydroquinazolin-8-yl)ethyl)amino)-N-(methylsulfonyl) picolinamide] |
|  |  | 6.30 to 6.60 | ≤ 5.30 | Cc1cc([C@@H](C)Nc2ccc(Cl)nc2C(=O)NS(C)(=O)=O)c2nc(N3CC[C@@H](c4cnc(C)nc4)C3)n(C)c(=O)c2c1 (relative stereo) [Compound 657, 6-chloro-3-(((R)-1-(3,6-dimethyl-2-((R*)-3-(2-methylpyrimidin-5-yl)pyrrolidin-1-yl)-4-oxo-3,4-dihydroquinazolin-8-yl)ethyl)amino)-N-(methylsulfonyl) picolinamide] |
|  |  | > 6.60 | 5.30 to 6.00 | [2H]C([2H])([2H])n1nccc1C1CCN(c2nc3c([C@@H](C)Nc4ccc(Cl)nc4C(=O)NS(C)(=O)=O)cc(C)cc3c(=O)n2C)CC1 [Compound 747, (R)-6-chloro-3-((1-(3,6-dimethyl-2-(4-(1-(methyl-d3)-1H-pyrazol-5-yl)piperidin-1-yl)-4-oxo-3,4-dihydroquinazolin-8-yl)ethyl)amino)-N-(methylsulfonyl) picolinamide] |
| > 6.60 | 5.30 to 6.00 |  |  | Cc1cc([C@@H](C)Nc2ccc(Cl)nc2C(=O)NS(C)(=O)=O)c2nc(-c3cnc(-c4cnn(C)c4)c(Cl)c3)n(C)c(=O)c2c1 [Compound 292, (R)-6-chloro-3-((1-(2-(5-chloro-6-(1-methyl-1H-pyrazol-4-yl)pyridin-3-yl)-3,6-dimethyl-4-oxo-3,4-dihydroquinazolin-8-yl)ethyl)amino)-N-(methylsulfonyl) picolinamide] |
|  |  | 6.30 to 6.60 | 5.30 to 6.00 | Cc1cc([C@@H](C)Nc2ccc(Cl)nc2C(=O)NS(C)(=O)=O)c2nc(-c3ccc4nn(C5CC5)cc4c3)n(C)c(=O)c2c1 [Compound 819, (R)-6-chloro-3-((1-(2-(2-cyclopropyl-2H-indazol-5-yl)-3,6-dimethyl-4-oxo-3,4-dihydroquinazolin-8-yl)ethyl)amino)-N-(methylsulfonyl) picolinamide] |
|  |  | 6.30 to 6.60 | ≤ 5.30 | Cc1cc([C@@H](C)Nc2ccc(Cl)nc2C(=O)NS(C)(=O)=O)c2nc(N3Cc4cn(-c5ccccn5)nc4C3)n(C)c(=O)c2c1 [Compound 688, (R)-6-chloro-3-((1-(3,6-dimethyl-4-oxo-2-(2-(pyridin-2-yl)-2,6-dihydropyrrolo[3,4-c]pyrazol-5(4H)-yl)-3,4-dihydroquinazolin-8-yl)ethyl)amino)-N-(methylsulfonyl) picolinamide] |
|  |  | > 6.60 | 5.30 to 6.00 | COc1ncc(N2CCN(c3nc4c([C@@H](C)Nc5ccc(Cl)nc5C(=O)NS(C)(=O)=O)cc(C)cc4c(=O)n3C)CC2)cn1 [Compound 555, (R)-6-chloro-3-((1-(2-(4-(2-methoxypyrimidin-5-yl)piperazin-1-yl)-3,6-dimethyl-4-oxo-3,4-dihydroquinazolin-8-yl)ethyl)amino)-N-(methylsulfonyl) picolinamide] |
|  |  | 6.30 to 6.60 | ≤ 5.30 | Cc1cc([C@@H](C)Nc2ccc(Cl)nc2C(=O)NS(C)(=O)=O)c2nc(N3CCC(c4nn(C5CC5)cc4F)CC3)n(C)c(=O)c2c1 [Compound 505, (R)-6-chloro-3-((1-(2-(4-(1-cyclopropyl-4-fluoro-1H-pyrazol-3-yl)piperidin-1-yl)-3,6-dimethyl-4-oxo-3,4-dihydroquinazolin-8-yl)ethyl)amino)-N-(methylsulfonyl) picolinamide] |
| > 6.60 | 5.30 to 6.00 |  |  | Cc1cc([C@@H](C)Nc2ccc(Cl)nc2C(=O)NS(C)(=O)=O)c2nc(N3CCC(n4ncc5cc(N)ccc54)CC3)n(C)c(=O)c2c1 [Compound 278, (R)-3-((1-(2-(4-(5-amino-1H-indazol-1-yl)piperidin-1-yl)-3,6-dimethyl-4-oxo-3,4-dihydroquinazolin-8-yl)ethyl)amino)-6-chloro-N-(methylsulfonyl) picolinamide] |
| > 6.60 | ≤ 5.30 |  |  | Cc1cc([C@@H](C)Nc2ccc(Cl)nc2C(=O)NS(C)(=O)=O)c2nc(N3CCC(c4cncc(C)n4)CC3)n(C)c(=O)c2c1 [Compound 399, (R)-6-chloro-3-((1-(3,6-dimethyl-2-(4-(6-methylpyrazin-2-yl)piperidin-1-yl)-4-oxo-3,4-dihydroquinazolin-8-yl)ethyl)amino)-N-(methylsulfonyl) picolinamide] |
| > 6.60 | ≤ 5.30 |  |  | Cc1cc([C@@H](C)Nc2ccc(Cl)nc2C(=O)NS(C)(=O)=O)c2nc(N3Cc4cccc(-c5cnn(C)c5)c4C3)n(C)c(=O)c2c1 [Compound 273, (R)-6-chloro-3-((1-(3,6-dimethyl-2-(4-(1-methyl-1H-pyrazol-4-yl)isoindolin-2-yl)-4-oxo-3,4-dihydroquinazolin-8-yl)ethyl)amino)-N-(methylsulfonyl) picolinamide] |
|  |  | > 6.60 | 5.30 to 6.00 | Cc1cc([C@@H](C)Nc2ccc(Cl)nc2C(=O)NS(C)(=O)=O)c2nc([C@H]3[C@@H]4CN(c5cnc(C)nc5)C[C@@H]43)n(C)c(=O)c2c1 [Compound 820, 6-chloro-3-(((R)-1-(3,6-dimethyl-2-((1R,5S,6r)-3-(2-methylpyrimidin-5-yl)-3-azabicyclo[3.1.0]hexan-6-yl)-4-oxo-3,4-dihydroquinazolin-8-yl)ethyl)amino)-N-(methylsulfonyl) picolinamide] |
| > 6.60 | 5.30 to 6.00 |  |  | Cc1cc([C@@H](C)Nc2ccc(Cl)nc2C(=O)NS(C)(=O)=O)c2nc(N3C[C@@H]4[C@H](C3)[C@H]4c3cnc(C)nc3)n(C)c(=O)c2c1 [Compound 405, 6-chloro-3-(((R)-1-(3,6-dimethyl-2-((1R,5S,6S)-6-(2-methylpyrimidin-5-yl)-3-azabicyclo[3.1.0]hexan-3-yl)-4-oxo-3,4-dihydroquinazolin-8-yl)ethyl)amino)-N-(methylsulfonyl) picolinamide] |
